The record followed here is patent US6696081B2, “Carbohydrate based lipid compositions and supramolecular structures comprising same” (Duke University, priority 2000, dated 2004).

For this assay, the system named is PLA2 (naja naja venom). Nature of the assay: pH-stat phospholipase assay. Format: biochemical. On the procedure: The pH-stat phospholipase assays were performed on a Metrohm 718 STAT Titrino pH-stat following a procedure described by Yuan et al. (Yuan, W.; Berman, R. J.; Gelb, M. H. J. Am. Chem. Soc. 1987, 109, 8071-8081; Deems, R. A.; Dennis, E. A. Methods Enzym 1981, 71, 703-710.) Before the assays were performed, the pH-stat was calibrated at pH 7 and pH 4. The NaOH (0.01 N) titrant was standardized by titration to pH 8.65 with a weighed amount of potassium hydrogen-phthalate in 40 mL of Dl water. The lipid was transferred to a 5 mL round bottom flask in methylene chloride/methanol (98/2) and the solvent was removed by rotoevaporation. High vacuum then removed trace amounts of remaining solvent. The lipid film was rehydrated with 2 mL of an aqueous solution containing TRITON X-100™ detergent (Sigma Chemical Company, St. Louis, Mo.) (40 mM) and CaCl2 (10 mM) and then sonicated briefly to solubilize the lipids.
Next, the solution was immersed in a temperature-controlled bath at 40° C. and stirred with a magnetic stir bar. A stream of argon was passed over the reaction mixture to prevent CO2 absorption. A microelectrode (Metrohm 6.0224.100 pH 1-11/0-60° C. Idrolyte) was inserted through the top of the reaction vessel along with the dosing tube from the pH-stat. The reaction mixture was adjusted to a pH of 8.2 by addition of NaOH. Next, 0.2 units of PLA2 (naja naja venom, Sigma Chemical Company, St. Louis, Mo.) (0.1 units/mL) was added to the reaction and the reaction started. The pH was allowed to drop to 8.0 and held at this value by addition of NaOH. At pH 8, the fatty acids were almost completely ionized; therefore, the amount of base added as a function of time indicates cleavage of the ester bond.
In this Example, enzymatic activity was recorded using a pH-stat, which maintains a specific pH by adding base during the enzymatic reaction. During these assays, DMPC was hydrolyzed with an initial average rate of 6.19 E-08 (moles NaOH/minute) (std dev 6.72E-10).
Next, whether DMRPC inhibits PLA2 activity was investigated. Using DMPC (5 mM) as a substrate, DMRPC was added to the reaction mixture at varying concentrations. […] With a change in structure, different carbohydrate-based phospholipids could inhibit PLA2.

Turning to “methyl-2,3-di-O-myristoyl-b-D-ribo-5-phosphocholine [DMRPC]”, the “hydrolysis rate of DMPC with DMRPC added” value (DMPC (5 mM) as substrate, DMRPC added to the reaction mixture) is 6.32E-08 (std. dev. 1.36E-08) moles NaOH/minute. Moreover, the “inhibition of PLA2 activity” value (DMPC (5 mM) as substrate, as much as 4 mM DMRPC added) is given as “did not yield a significant hydrolysis rate decrease”. Moreover, the “initial average rate of hydrolysis by PLA2” value (lipid as substrate, Triton X-100 40 mM, CaCl2 10 mM, 40° C., pH 8.0, PLA2 0.1 units/mL) is given as “not hydrolyzed”.
